The values that follow come from patent US4405608A, “Novel peptide” (Novo Industri A/S, priority 1981, dated 1983).

The data set in a line: Toxicology: repeated subcutaneous administration to cats. The class given is in vivo. Particulars: repeated s.c. administration of increasing doses up to 16 μg/kg body weight.

No end group written: not given here.

For RSLQNTEEKSRSFPAPQTDPLDDPDQMTED [GRPP], the adverse effects result was “did not cause any adverse effects”.
